# From ChEMBL document CHEMBL2150874, “Novel and selective inhibitors of histone deacetylase: patent highlight” (ACS Med Chem Lett, 2012)
# What was measured:
# [1] = target: T1, Protein deacetylase HDAC6 (Homo sapiens, UniProt Q9UBN7); assay: Inhibition of HDAC6
# T1 sequence (Q9UBN7 whole entry): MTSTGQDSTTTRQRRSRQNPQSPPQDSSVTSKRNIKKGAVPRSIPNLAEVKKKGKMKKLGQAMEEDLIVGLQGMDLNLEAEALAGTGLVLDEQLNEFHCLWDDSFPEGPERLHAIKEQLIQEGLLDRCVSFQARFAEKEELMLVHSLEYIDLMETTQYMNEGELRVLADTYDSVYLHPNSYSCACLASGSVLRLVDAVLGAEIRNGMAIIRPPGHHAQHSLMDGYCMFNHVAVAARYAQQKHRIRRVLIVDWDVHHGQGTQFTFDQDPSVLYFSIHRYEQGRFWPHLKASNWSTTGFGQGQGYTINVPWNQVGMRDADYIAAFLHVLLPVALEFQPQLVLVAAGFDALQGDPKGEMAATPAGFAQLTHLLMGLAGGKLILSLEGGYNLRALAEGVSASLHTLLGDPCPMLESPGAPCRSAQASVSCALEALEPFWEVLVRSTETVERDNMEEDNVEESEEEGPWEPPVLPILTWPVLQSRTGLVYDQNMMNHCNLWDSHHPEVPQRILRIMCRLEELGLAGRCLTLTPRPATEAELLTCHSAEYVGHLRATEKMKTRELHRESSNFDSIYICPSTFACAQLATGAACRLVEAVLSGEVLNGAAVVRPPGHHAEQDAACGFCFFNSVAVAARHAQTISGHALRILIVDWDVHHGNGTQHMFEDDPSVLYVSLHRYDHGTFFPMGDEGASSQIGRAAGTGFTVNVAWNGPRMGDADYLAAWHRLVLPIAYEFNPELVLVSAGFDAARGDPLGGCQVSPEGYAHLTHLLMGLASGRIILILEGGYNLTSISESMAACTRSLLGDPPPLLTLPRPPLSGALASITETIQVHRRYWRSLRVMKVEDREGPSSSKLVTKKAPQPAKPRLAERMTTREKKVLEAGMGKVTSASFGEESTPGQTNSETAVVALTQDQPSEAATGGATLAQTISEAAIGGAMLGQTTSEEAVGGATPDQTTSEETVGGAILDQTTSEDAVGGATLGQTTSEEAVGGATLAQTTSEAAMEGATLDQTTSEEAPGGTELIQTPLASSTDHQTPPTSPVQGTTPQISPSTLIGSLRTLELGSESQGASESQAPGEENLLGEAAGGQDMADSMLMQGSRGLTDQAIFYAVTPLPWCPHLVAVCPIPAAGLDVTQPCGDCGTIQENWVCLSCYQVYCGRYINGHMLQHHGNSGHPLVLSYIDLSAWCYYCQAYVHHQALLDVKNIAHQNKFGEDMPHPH
# PC-12 = assay: Neuroprotective activity in rat PC12 cells at 1 uM by lactate dehydrogenase assay; type: functional
Structure (SMILES),IC50 [1] [nM],Activity (PC-12) [%]
O=C(NO)c1ccc2c(c1)CN(C(=O)/C(=C/c1ccc(F)cc1F)c1ccc(F)cc1)CC2,< 1,56
Cc1ccc(/C(=C\c2ccc(F)cc2)C(=O)N2CCc3ccc(C(=O)NO)cc3C2)cc1,< 1,100
Cc1ccc(/C(=C\c2ccccc2)C(=O)N2CCc3ccc(C(=O)NO)cc3C2)cc1,< 1,68.7
COc1ccc(/C=C(/C(=O)N2CCc3ccc(C(=O)NO)cc3C2)c2ccccc2F)cc1OC,< 1,100
COc1ccc(/C=C(/C(=O)N2CCc3ccc(C(=O)NO)cc3C2)c2ccccc2)cc1,< 1,55

# Further lines, with some results ahead:
IC50 [1] [nM],Structure (SMILES),Activity (PC-12) [%]
< 1,COc1cc(/C=C(/C(=O)N2CCc3ccc(C(=O)NO)cc3C2)c2ccc(F)cc2)ccc1F,67.2
< 1,COc1ccc(/C=C(/C(=O)N2CCc3ccc(C(=O)NO)cc3C2)c2ccc(F)cc2)c(OC)c1,38
< 1,O=C(NO)c1ccc2c(c1)CN(C(=O)/C(=C/c1ccccc1)c1cccc(Cl)c1)CC2,77.8
< 1,O=C(NO)c1ccc2c(c1)CN(C(=O)/C(=C/c1ccccc1)c1ccccc1)CC2,36.6
< 1,O=C(NO)c1ccc2c(c1)CN(C(=O)/C(=C/c1cccs1)c1ccc(F)cc1)CC2,71.8
